Measurements as given in US10087148B2, “Quinazolines as biogenic amine transport modulators” (THE UNITED STATES OF AMERICA AS REPRESENTED BY THE …, priority 2014, dated 2018).

Legend:
[1] = molecular target: T1, dopamine transporter (DAT) (Rattus norvegicus (Rat), UniProt P23977); assay: Dopamine transporter-mediated [3H]MPP+ release (d-amphetamine-induced, shift experiments) in rat caudate synaptosomes; format: biochemical; conditions: [3H]MPP+ release; for Emax: read-out: d-Amphetamine Emax in presence of blocker, blocker concentration per row, mean ± S.D., n = 3; for Apparent Kc: [Blocker]/((EC50-2/EC50-1) − 1)
DAT = DAT (Rattus norvegicus (Rat), UniProt P23977); assay: Inhibition of [3H]WIN35428 binding to rat caudate DAT
Description: All of the test compounds were synthesized as described herein. […] The data from three experiments were pooled and fit to a dose-response curve equation (using KaleidaGraph; Synergy Software, Reading, Pa.) to yield an Emax and IC50 value. […] Selected compounds were also tested for their ability to inhibit [^3H]WIN35428 binding to rat caudate DAT.

[2] = molecular target: T1, dopamine transporter (DAT); assay: [3H]dopamine (DA) uptake inhibition in rat brain (caudate) synaptosomes; format: biochemical
[3] = molecular target: serotonin transporter (SERT) (Rattus norvegicus (Rat), UniProt P31652); assay: [3H]serotonin (5-HT) uptake inhibition in rat brain synaptosomes; format: biochemical; conditions: for Emax / IC50: mean ± S.D., n = 3; for Emax: read-out: SERT Uptake Emax
Description: Uptake inhibition assay for the serotonin transporter was conducted in rat brain synaptosomes as described elsewhere with minor modifications (Rothman et al., Synapse 39, 32-41 (2001)). Freshly removed whole brain minus cerebellum and caudate was homogenized in 10% ice-cold sucrose with 12 strokes of a hand-held Potter-Elvehjem homogenizer followed by centrifugation at 1000×g for 10 min. The supernatants were saved on ice and used immediately. Transporter activity at SERT was assessed using 5 nM [^3H]serotonin. The assay buffer was Krebs-phosphate buffer containing 154.4 mM NaCl, 2.9 mM KCl, 1.1 mM CaCl2, 0.83 mM MgCl2, 5 mM glucose, 1 mg/mL ascorbic acid, and 50 μM pargyline. […] Uptake inhibition assays were conducted at 25° C. and were initiated by adding 100 μL of tissue to 900 μL assay buffer containing test drug and [^3H]serotonin. Test drugs were diluted in assay buffer containing 1 mg/mL bovine serum albumin. Nonspecific uptake was measured by incubating in the presence of 10 μM indatraline. The reactions were stopped after 30 min by rapid vacuum filtration with a cell harvester (BRANDEL) over GF/B filters (Whatman) presoaked in wash buffer maintained at 25° C. (10 mM Tris-HCl, pH 7.4/150 mM NaCl). Filters were rinsed with 6 mL wash buffer and retained tritium was quantified by a MicroBeta liquid scintillation counter (PerkinElmer) after overnight extraction in 0.6 mL of liquid scintillation cocktail (Cytoscint, ICN). The data from three experiments were pooled and fit to a dose-response curve equation (using Kaleidagraph), to yield an Emax and EC50 value.

[4] = molecular target: norepinephrine transporter (NET) (Rattus norvegicus, UniProt Q63380); assay: [3H]norepinephrine (NE) uptake inhibition in rat brain synaptosomes; format: biochemical; conditions: for Emax: read-out: NET Uptake Emax; for IC50: read-out: NET Uptake IC50, mean ± S.D., n = 3
Description: Uptake inhibition assay for the norepinephrine transporter was conducted in rat brain synaptosomes as described elsewhere with minor modifications (Rothman et al., Synapse 39, 32-41 (2001)). Freshly removed whole brain minus cerebellum and caudate was homogenized in 10% ice-cold sucrose with 12 strokes of a hand-held Potter-Elvehjem homogenizer followed by centrifugation at 1000×g for 10 minutes. The supernatants were saved on ice and used immediately. Transporter activity at NET was assessed using 10 nM [^3H]norepinephrine. The assay buffer was Krebs-phosphate buffer containing 154.4 mM NaCl, 2.9 mM KCl, 1.1 mM CaCl2, 0.83 mM MgCl2, 5 mM glucose, 1 mg/mL ascorbic acid, and 50 μM pargyline. […] Uptake inhibition assays were conducted at 37° C. and were initiated by adding 100 μL of tissue to 900 μL assay buffer containing test drug and [^3H]norepinephrine. Test drugs were diluted in assay buffer containing 1 mg/mL bovine serum albumin. Nonspecific uptake was measured by incubating in the presence of 10 μM indatraline. The reactions were stopped after 10 minutes by rapid vacuum filtration with a cell harvester (BRANDEL) over GF/B filters (Whatman) presoaked in wash buffer maintained at 25° C. (10 mM Tris-HCl, pH 7.4/150 mM NaCl). Filters were rinsed with 6 mL wash buffer and retained tritium was quantified by a MicroBeta liquid scintillation counter (PerkinElmer) after overnight extraction in 0.6 mL of liquid scintillation cocktail (Cytoscint, ICN). The data from three experiments were pooled and fit to a dose-response curve equation (using Kaleidagraph), to yield an Emax and EC50 value.

[5] = [3H]WIN35428, mean ± S.D., n = 3
[6] = rat brain synaptosomes, 5 nM [3H]serotonin, mean ± SD
[7] = mean ± S.D., n = 3, read-out: DAT Uptake Emax
[8] = values in Table 9, read-out: Emax for DAT Uptake Inhibition
[9] = [3H]WIN35428, mean ± S.D., n = 3, unit as printed in head (text gives 1100 nM where table prints 1.1)

T1 sequence (P23977 whole entry): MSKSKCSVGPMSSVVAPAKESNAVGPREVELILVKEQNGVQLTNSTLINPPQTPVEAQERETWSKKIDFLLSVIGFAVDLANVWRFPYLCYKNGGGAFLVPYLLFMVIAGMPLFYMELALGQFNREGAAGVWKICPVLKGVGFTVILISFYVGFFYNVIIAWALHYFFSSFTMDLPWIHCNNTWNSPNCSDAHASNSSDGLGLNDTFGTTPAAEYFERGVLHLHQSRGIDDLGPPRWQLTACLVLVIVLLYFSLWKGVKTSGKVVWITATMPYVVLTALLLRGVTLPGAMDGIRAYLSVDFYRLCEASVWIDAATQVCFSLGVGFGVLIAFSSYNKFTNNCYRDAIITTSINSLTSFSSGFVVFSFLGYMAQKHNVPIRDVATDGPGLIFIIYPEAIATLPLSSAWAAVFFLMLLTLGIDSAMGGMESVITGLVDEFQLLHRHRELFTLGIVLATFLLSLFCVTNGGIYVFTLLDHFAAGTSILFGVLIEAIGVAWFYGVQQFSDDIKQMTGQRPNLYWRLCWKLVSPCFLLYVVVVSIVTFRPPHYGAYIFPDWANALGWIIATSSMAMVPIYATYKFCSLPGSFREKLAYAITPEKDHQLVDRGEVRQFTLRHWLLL
Chain of DAT (P23977 whole entry): as above
Chain of serotonin transporter (SERT) (P31652 whole entry): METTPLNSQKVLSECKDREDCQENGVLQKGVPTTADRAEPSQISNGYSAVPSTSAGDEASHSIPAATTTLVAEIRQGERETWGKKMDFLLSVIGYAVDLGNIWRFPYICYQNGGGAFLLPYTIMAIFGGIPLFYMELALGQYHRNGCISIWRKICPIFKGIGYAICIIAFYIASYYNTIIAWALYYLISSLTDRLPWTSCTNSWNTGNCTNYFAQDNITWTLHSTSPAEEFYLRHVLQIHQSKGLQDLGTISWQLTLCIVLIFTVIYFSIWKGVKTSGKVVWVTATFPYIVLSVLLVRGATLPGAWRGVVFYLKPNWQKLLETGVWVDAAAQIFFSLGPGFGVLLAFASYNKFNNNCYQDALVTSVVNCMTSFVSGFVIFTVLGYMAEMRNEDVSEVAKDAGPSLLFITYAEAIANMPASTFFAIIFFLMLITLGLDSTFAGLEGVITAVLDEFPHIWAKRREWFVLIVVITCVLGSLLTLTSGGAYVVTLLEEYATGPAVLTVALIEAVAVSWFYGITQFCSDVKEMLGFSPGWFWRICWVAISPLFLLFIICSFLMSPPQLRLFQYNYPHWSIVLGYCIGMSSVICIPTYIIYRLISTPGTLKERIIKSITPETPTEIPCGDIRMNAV
Chain of norepinephrine transporter (NET) (Q63380 1-617): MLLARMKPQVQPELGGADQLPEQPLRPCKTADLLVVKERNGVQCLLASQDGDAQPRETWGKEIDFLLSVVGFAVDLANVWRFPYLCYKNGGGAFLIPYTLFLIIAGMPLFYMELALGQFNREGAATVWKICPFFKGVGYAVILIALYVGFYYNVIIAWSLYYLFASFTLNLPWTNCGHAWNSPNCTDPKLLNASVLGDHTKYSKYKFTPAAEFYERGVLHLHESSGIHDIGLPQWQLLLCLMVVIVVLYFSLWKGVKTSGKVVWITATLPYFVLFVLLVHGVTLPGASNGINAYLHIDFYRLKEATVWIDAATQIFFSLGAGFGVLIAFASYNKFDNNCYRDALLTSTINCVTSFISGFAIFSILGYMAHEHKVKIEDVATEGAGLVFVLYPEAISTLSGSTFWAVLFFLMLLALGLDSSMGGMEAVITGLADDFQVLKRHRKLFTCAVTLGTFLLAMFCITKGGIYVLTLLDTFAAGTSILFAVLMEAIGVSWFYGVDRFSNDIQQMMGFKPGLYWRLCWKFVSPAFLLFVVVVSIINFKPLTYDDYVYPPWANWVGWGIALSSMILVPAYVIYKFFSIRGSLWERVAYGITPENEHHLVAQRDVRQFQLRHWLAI

Row | Structure (SMILES) | Emax [1] | Emax [3] | Emax [4] | IC50 [4] | Emax (DAT; [5]) | Emax [2, 7] | Emax [2, 8] | Apparent Kc [1] | IC50 (DAT; [9]) | further results
1 | CS(=O)(=O)Nc1ccc(-c2nc(NCC(c3ccccc3)c3ccncc3)c3ccccc3n2)cc1 (centres unmarked) [Compound 10, N-(4-(4-((2-phenyl-2-(pyridin-4-yl)ethyl)amino)quinazolin-2-yl)phenyl)methanesulfonamide] | 103 ± 3% | 56 ± 1% | 76 ± 2% | 44 ± 6 nM | – | – | – | – | – | Emax at 0.125 µM ([1]; read-out: D-Amphetamine Emax in presence of compound, compound concentration 125 nM, mean ± SD): 103 ± 3%; DAT Binding Emax (DAT; [5]): 52 ± 6%; DAT Uptake Emax ([2]; mean ± S.D., n = 3): 71 ± 1%; DA Uptake Emax ([2]; rat caudate synaptosomes, 5 nM [3H]dopamine, mean ± SD): 71 ± 1 % I; 5HT Uptake Emax [3, 6]: 56 ± 1 % I; EC50 [3, 6]: 8.7 ± 0.9 nM; NE Uptake Emax ([4]; rat brain synaptosomes, 10 nM [3H]norepinephrine, mean ± SD): 76 ± 2 % I; EC50 ([4]; read-out: NE Uptake EC50, rat brain synaptosomes, 10 nM [3H]norepinephrine, mean ± SD): 44 ± 6 nM
2 | CS(=O)(=O)Nc1ccc(-c2nc(NCC(c3ccccc3)c3ccccc3)c3ccccc3n2)cc1 [Compound 50, N-(4-(4-((2,2-diphenylethyl)amino)quinazolin-2-yl)phenyl)methanesulfonamide] | 102 ± 2% | 56 ± 2% | 71 ± 2% | 90 ± 15 nM | 65 ± 6% | 70 ± 2% | 70% | – | – | –
3 | CN(C)c1ccc(-c2nc(NCC(c3ccccc3)c3ccccc3)c3ccccc3n2)cc1 [Compound 51, 2-(4-(dimethylamino)phenyl)-N-(2,2-diphenylethyl)quinazolin-4-amine] | 101 ± 2% | 44 ± 4% | 68 ± 7% | 143 ± 61 nM | 100 ± 3% | 70 ± 3% | 70% | – | – | DAT binding IC50 weaker than IC50 for inhibition of DAT uptake (DAT; binding IC50 / uptake IC50): 155 fold
4 | c1ccc(C(CCNc2nc(-c3cccnc3)nc3ccccc23)c2ccccc2)cc1 [SRI-29070] | 98 ± 1% | 48 ± 3% | 64 ± 10% | 1740 ± 1150 nM | 71 ± 4% | 66 ± 4% | 66% | 7050 nM | 1800 ± 400 nM | IC50 ([2]; mean ± S.D., n = 3): 174 ± 58 nM; IC50 [3]: 699 ± 164 nM
5 | c1ccc(C(CNc2nc(-c3cccnc3)nc3ccccc23)c2ccccc2)cc1 [SRI-29072] | 96 ± 3% | 56 ± 9% | 62 ± 5% | 5850 ± 1750 nM | 77 ± 2% | 71 ± 3% | 71% | 25830 nM | 2700 ± 300 nM | IC50 ([2]; mean ± S.D., n = 3): 212 ± 49 nM; IC50 [3]: 6380 ± 2640 nM
6 | CN(C)c1ncc(-c2nc(NCC(c3ccccc3)c3ccccc3)c3ccccc3n2)cn1 [SRI-29153] | 101 ± 3% | 55 ± 5% | 73 ± 4% | 181 ± 46 nM | 76 ± 2% | 73 ± 1% | 73% | 1820 nM | 1700 ± 200 nM | –
7 | c1ccc(C(CNc2nc(-c3ccc4[nH]ccc4c3)nc3ccccc23)c2ccccc2)cc1 [SRI-29155] | 94 ± 2% | 54 ± 2% | 70 ± 3% | 290 ± 52 nM | 87 ± 4% | 74 ± 1% | 74% | 456 nM | 900 ± 200 nM | –
8 | CN(C)c1ncc(-c2nc(NCCC(c3ccccc3)c3ccccc3)c3ccccc3n2)cn1 [SRI-29212] | 103 ± 2% | 50 ± 7% | 64 ± 5% | 8130 ± 2270 nM | 72 ± 4% | 67 ± 4% | 67% | 64580 nM | 2200 ± 500 nM | IC50 ([2]; mean ± S.D., n = 3): 672 ± 204 nM; IC50 [3]: 3800 ± 1640 nM
9 | CN(C)c1ccc(-c2nc(NCC(c3ccccc3)c3ccccc3)c3ccccc3n2)cn1 [SRI-29779] | 99 ± 2% | 51 ± 2% | 71 ± 6% | 147 ± 63 nM | 83 ± 3% | 63 ± 3% | 63% | 912 nM | 1200 ± 200 nM | –
10 | c1ccc(C(CNc2nc(-c3cnc4nccn4c3)nc3ccccc23)c2ccccc2)cc1 [SRI-29991] | 102 ± 2% | 51 ± 1% | 69 ± 2% | 63 ± 9 nM | 18 ± 4% | 68 ± 1% | 68% | -1070 nM | 1220 ± 1120 nM | –
11 | c1ccc(C(CNc2nc(-c3cnc4nccn4c3)nc3ccccc23)C2CCCCC2)cc1 (centres unmarked) [SRI-30517] | 104 ± 4% | 54 ± 1% | 70 ± 2% | 95 ± 12 nM | 43 ± 4% | 70 ± 1% | 70% | 1600 nM | 160 ± 80 nM | –
12 | c1ccc(C(CNc2nc(-c3ccc4ncnn4c3)nc3ccccc23)c2ccccc2)cc1 [SRI-30522] | 105 ± 4% | 35 ± 3% | 40 ± 5% | 86 ± 55 nM | – | 63 ± 1% | 63% | – | – | DAT Binding Emax (DAT; [5]): Inactive; DAT Binding IC50 (DAT; [9]): Inactive
13 | c1ccc(C(CNc2nc(-c3cnc4nccn4c3)nc3ccccc23)c2ccncc2)cc1 (centres unmarked) [SRI-30810] | 104 ± 5% | 51 ± 2% | 69 ± 2% | 60 ± 10 nM | 25 ± 2% | 64 ± 1% | 64% | 1200 nM | 820 ± 360 nM | –
